One assay concerns Fbn1mgR/mgR mice. Kind of assay: Forelimb grip strength and fatigue in Fbn1mgR/mgR mice. The format is in vivo, mouse. The following applies: 5 months of losartan, untreated 28±2.5, wild-type 3±0.8. On the procedure:
Mice were continued on oral therapy for 6 months and sacrificed. […] Age-matched wild-type and mdx mice (placebo-treated) served as a control group. After 6 months of treatment, forelimb and hindlimb grip strength was assessed using an automated grip strength meter (Columbus Instruments, Columbus, Ohio). The experiments for forelimb and hindlimb grip strength testing were conducted at different days allowing for a minimum recovery period of 10 days. Total peak force (in Newtons) was determined by an electronic strain gauge as previously described and corrected for body weight (Wagner, K. R., et al. (2002) Ann Neurol 52, 832-6). Five measurements within 2 minutes were taken from each animal. The three highest measurements for each animal were averaged to give the strength score. The degree of fatigue was calculated by comparing the first two pulls to the last two pulls with the decrement between pulls 1+2 and pulls 4+5 providing a measure of fatigue. Similarly, functional measurements were performed in 6 month old fibrillin-1 deficient mice (Fbn1^mgR) (Pereira, L. et al. (1997) Nat Genet. 17, 218-22) after 5 months of treatment.

In assay [1] the test system is Fbn1C1039G/+ mice. Kind of assay: Muscle regeneration after cardiotoxin-induced injury in Fbn1C1039G/+ mice. The following applies: 4 and 18 days after injury, monopotassium salt. Format: in vivo, mouse. Here is the method:
All mouse protocols were approved by the Animal Care and Use Committee of Johns Hopkins University School of Medicine. Creation of the mouse line harboring the Fbn1 mutation C1039G has been previously described (Judge, D. P. et al. (2004) J Clin Invest 114, 172-81). All analyses were performed in male mice after back-crossing (>9 times) this mutation into the C57BL/6J background, allowing valid comparisons between litters. Mice were sacrificed with an inhalation overdose of halothane (Sigma-Aldrich) or by cervical dislocation. […] Subsequently, mice were analyzed at 4, 7, 18 and 28 days after injury. For regeneration experiments in mdx mice we injected 150 μl of cardiotoxin into the tibialis anterior muscle of wild-type and mdx mice, either treated or untreated with TGFβ neutralizing antibody (n=6 each group) at 9 months of age and analyzed skeletal muscle at 4 days and 18 days after injection.
Mice were continued on oral therapy for 6 months and sacrificed. […] After 6 months of treatment, forelimb and hindlimb grip strength was assessed using an automated grip strength meter (Columbus Instruments, Columbus, Ohio). […] Total peak force (in Newtons) was determined by an electronic strain gauge as previously described and corrected for body weight (Wagner, K. R., et al. (2002) Ann Neurol 52, 832-6). […]

Assay [2] has as its system young patients with an aggressive rate of aortic growth. The experiment in a line: Losartan in young patients with aggressive rate of aortic growth despite standard therapy. The format is in vivo, human. The following applies: n=8, despite β-adrenergic/ACE blockade, monopotassium salt. Here is the method:
Markers of TGFβ antagonism have included reduced plasma levels of free TGFβ, reduced intracellular initiation of the TGFβ signaling cascade, and reduced tissue expression of TGFβ-responsive genes. […] Three independent measurements of the aortic root were made from the long axis echo view in systole at each of 3 time points (baseline, 2 and 4 months of treatment; FIG. 8A). All analyses were performed blinded to genotype and treatment arm. […] This represents the first therapeutic strategy for MFS that derives from interrogation of disease pathogenesis and the first possibility for primary prevention of disease manifestations.

For assay [3], the system named is TGFβ signaling (pSmad2/3, periostin). Kind of assay: Immunofluorescence of TGFβ signaling markers (pSmad2/3, periostin, TSP1) in skeletal muscle of fibrillin-1 deficient mice. The format is in vivo, mouse. Here is the method:
Immunofluorescent studies were performed as previously described (Cohn, R. D. et al. (2002) Cell 110, 639-48). […] The following antibodies were used in this study: goat polyclonal anti-pSmad 2/3, rabbit polyclonal anti c-met and rabbit polyclonal anti-myogenin (all from Santa Cruz Biotechnology Inc.); rabbit polyclonal anti-pSmad2 (#3104, Cell Signal) rat polyclonal anti-lamininyl, rabbit polyclonal anti-dystrophin, rabbit polyclonal antithrombospondin-1 and rabbit polyclonal anti-periostin (all from Abcam); rabbit polyclonal anti-fibrillin-1 (pAb 9543) (Judge, D. P. et al. (2004) J Clin Invest 114, 172-81); goat polyclonal anti-vimentin (Sigma) and, mouse monoclonal anti-beta-sarcoglycan mouse monoclonal anti-developmental myosin (Novocastra). Anti a-dystroglycan antibody IIH6 was generously supplied by Dr. Kevin Campbell, Iowa. Secondary Alexa fluor donkey anti-rabbit, anti-rat, anti mouse IgM and IgG1 and anti-goat conjugated antibodies (Molecular probes) were applied for 1 hour at room temperature. Nuclei were stained with DAPI for 5 minutes, and inverted coverslips were mounted onto glass slides using Cytoseal (Vector Laboratories).
Skeletal muscle from Fbn1^C1039G/+ mice was assessed for increased TGFβ signaling by immunohistochemical staining for phosphorylated Smad2/3 (pSmad2/3). […]

In assay [4] the test system is Fbn1C1039G/+ mice. The experiment in a line: Lung distal airspace caliber (mean linear intercept) in Fbn1C1039G/+ mice treated postnatally with losartan. The following applies: for Distal airspace caliber / alveolar septation, in words: postnatal losartan, monopotassium salt. The format is in vivo, mouse. An excerpt:
This abnormality correlated with increased TGF-β signaling and was prevented by prenatal administration of TGF-β NAb.

Entries after “also recorded” stand apart in the source; their conditions may differ.

On to `CCCCc1nc(Cl)c(CO)n1Cc1ccc(-c2ccccc2-c2nnn[nH]2)cc1.[K]` [losartan, 2-butyl-4-chloro-1-[p-(o-1H-tetrazol-5-ylphenyl)benzyl]imidazole-5-methanol monopotassium salt], for which the Fatigue in the assay on Fbn1mgR/mgR mice is on record as 9%±1.8. The figures for the “Muscle regeneration after cardiotoxin injury, in words” value in the assay on Fbn1C1039G/+ mice [1] (listed as Losartan) and with Fbn1C1039G/+ mice [1] were “rescued; also recorded: normal initiation of muscle regeneration” and “markedly improved”, respectively. Also, the “Response of aortic growth in patients” value in assay [2] (listed as Losartan) is listed as “effective”; in assay [2], “remarkable response”. For the same molecule, the “Nuclear pSmad2/3 and sarcolemmal periostin in uninjured skeletal muscle” value in assay [3] (Fbn1C1039G/+ mice, steady state) is “abrogation of TGFβ signaling”. Further, the “Expression of thrombospondin-1 (TSP1) and periostin in skeletal muscle” value in assay [3] (losartan-treated fibrillin-1 deficient mice) is listed as “Decreased expression”. The molecule further had a Mean linear intercept in the assay with Fbn1C1039G/+ mice [4] (losartan from 7 weeks of age, 6 months, placebo 84.3±15, wild-type 41.3±5) of 53.9±12 μm. Besides, the entries for the “Distal airspace caliber / alveolar septation, in words” value in the assay on Fbn1C1039G/+ mice [4] (listed as Losartan) and with Fbn1C1039G/+ mice [4] were “rescued; also recorded: normalization of the caliber of the distal airspace” and “reduced”, respectively.

Values taken from patent US8597646B2, “Methods and compositons featuring TGF-beta antagonists for the treatment of marfan syndrome and associated disorders” (The Johns Hopkins University, priority 2005, dated 2013).
